15 compounds from patent US11834460B2, “Imide-based modulators of proteolysis and associated methods of use” (YALE UNIVERSITY, priority 2018, dated 2023) can be followed below.

SMILES strings stand for the structures. Where a SMILES comes first, the peptide text is derived from it. The star is where a group is joined. Cbz = O=C(OCc1ccccc1)* Some results are limits rather than exact numbers.

One assay deals with T1, BRD4 (Homo sapiens, UniProt O60885).
T1 construct: endogenous in cells; host or cells: NAMALWA, Ramos, CA-46, DAUDI
Kind of assay: Western blot analysis of BRD4 in BL cell lines. It is filed as cell-based. The following applies: inhibitor 5 μM with A825 10 nM or 100 nM; overnight; NAMALWA cells. Here is the method:
Cultured cells were collected in lysis buffer containing 40 mM HEPES (pH 7.4), 140 mM NaCl, 2.5 mM EDTA, 1% NP-40, 0.1% SDS and protease inhibitor cocktail. After 10 minutes of centrifugation (14000 rpm), supernatant was collected for protein concentration determination by BCA method and subjected for immunoblotting by standard protocol. Western blot results were visualized using Bio-Rad Clarity ECL Western Blotting Substrate on Bio-Rad ChemiDoc™ MP imaging system.
A separate set of cells were treated in the same manner, except that DMSO was used in place of the inhibitor. […] Following treatment, cell lysates were collected and analyzed by immunoblot for BRD4 and Actin.
Specifically, NAMALWA and Ramos cells were treated with 300 nM of each inhibitor for 0 hr, 0.5 hr, 1.0 hr, 2.0 hr, 4.0 hr, 7.0 hr, 24 hr, and 48.0 hr. Following treatment, cell lysates were collected and analyzed by immunoblot for BRD4 and Actin.
(§1) Following treatment, cell lysates were collected and analyzed by immunoblot for BRD4 and Actin.
as §1, §1, §1
Cells were re-seeded in fresh medium and incubated without any compound for 0 hr, 2.0 hr, 4.0 hr, 6.0 hr, and 24.0 hr. In a parallel control experiment, cells were treated in the same manner, except DMSO was used in place of inhibitor. Lysates were collected and analyzed by immunoblot for BRD4, c-Myc, and Actin.
On the technique in general: Immunoblotting shows a protein as a band on a membrane.
Take `CC(C)C[C@H](NC(=O)[C@H](CCc1ccccc1)NC(=O)CN1CCOCC1)C(=O)N[C@@H](Cc1ccccc1)C(=O)N[C@@H](CC(C)C)C(=O)[C@@]1(C)CO1` [Carfizomib]: the “effect of proteasome inhibitor on A825-induced BRD4 degradation” value is “completely prevented BRD4 degradation”.

For the compound `CC(C)C[C@@H](C=O)NC(=O)[C@H](CC(C)C)NC(=O)[C@H](CC(C)C)NC(=O)OCc1ccccc1` [MG132] (Cbz-Leu-Leu-Leu-aldehyde), the “effect of proteasome inhibitor on A825-induced BRD4 degradation” value is given as “completely prevented BRD4 degradation”.

For a further assay, the target named is T2, androgen receptor (AR) (Homo sapiens, UniProt P10275).
T2 construct: detects endogenous levels of total androgen receptor protein; endogenous in cells; host or cells: VCaP
T2 sequence (P10275 1-920): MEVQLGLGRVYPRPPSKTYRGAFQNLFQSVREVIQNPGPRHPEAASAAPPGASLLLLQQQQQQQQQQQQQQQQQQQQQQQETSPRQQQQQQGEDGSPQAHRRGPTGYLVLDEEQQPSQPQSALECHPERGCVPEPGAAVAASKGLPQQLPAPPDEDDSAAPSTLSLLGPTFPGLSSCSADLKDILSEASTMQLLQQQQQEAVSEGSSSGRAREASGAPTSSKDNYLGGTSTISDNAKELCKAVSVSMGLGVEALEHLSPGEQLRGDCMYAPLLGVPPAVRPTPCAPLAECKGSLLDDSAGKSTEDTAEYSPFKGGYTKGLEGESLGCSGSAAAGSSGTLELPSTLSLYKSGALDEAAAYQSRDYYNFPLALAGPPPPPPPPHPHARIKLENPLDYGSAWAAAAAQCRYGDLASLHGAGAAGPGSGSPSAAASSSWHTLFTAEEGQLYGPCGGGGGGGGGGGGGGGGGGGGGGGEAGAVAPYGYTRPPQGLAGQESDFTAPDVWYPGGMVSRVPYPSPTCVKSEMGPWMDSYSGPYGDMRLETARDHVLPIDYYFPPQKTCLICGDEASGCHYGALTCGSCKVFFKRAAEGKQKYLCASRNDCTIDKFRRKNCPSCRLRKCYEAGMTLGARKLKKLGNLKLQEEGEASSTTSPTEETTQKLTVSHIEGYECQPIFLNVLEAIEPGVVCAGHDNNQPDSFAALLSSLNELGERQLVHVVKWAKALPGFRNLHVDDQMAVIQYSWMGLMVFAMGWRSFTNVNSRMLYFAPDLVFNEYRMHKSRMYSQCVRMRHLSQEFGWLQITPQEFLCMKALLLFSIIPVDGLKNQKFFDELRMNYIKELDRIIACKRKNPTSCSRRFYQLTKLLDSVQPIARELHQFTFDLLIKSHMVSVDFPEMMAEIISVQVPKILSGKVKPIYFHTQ
Kind of assay: AR ELISA protocol, degradation in VCaP cells. As to conditions: 1 uM, 16 h. The format is cell-based. Further details: Dmax: dose or concentration left out as unconfirmed. Here is the method:
In each bioassay, cells were treated with varying amounts of compounds encompassed by the present disclosure, as shown in Table 1. The degradation of the following proteins were evaluated in this study: TANK-binding kinase 1 (TBK1), estrogen receptor α (ERα), bromodomain-containing protein 4 (BRD4), androgen receptor (AR), and c-Myc.
VCaP cells were purchased from ATCC and cultured in Dulbecco's Modified Eagle's Medium (ATCC), supplemented with 10% FBS (ATCC) and Penicillin/Streptomycin (Life Technologies). DMSO control and compound treatments (0.0001 μM-1 μM) were performed in 96-well plates for 16 h. Cells were harvested, and lysed with Cell Lysis Buffer (Catalog #9803) (20 mM Tris-HCL (pH 7.5), 150 mM NaCl, 1 mM Na2EDTA, 1 mM EGTA, 1% Triton, 2.5 mM sodium pyrophosphate, 1 mM B-glycerophosphate, 1 mM Na3VO4, 1 ug/ml leupeptin. Lysates were clarified at 16,000 g for 10 minutes, and loaded into the PathScan AR ELISA (Cell Signaling Catalog #12850). The PathScan® Total Androgen Receptor Sandwich ELISA Kit is a solid phase sandwich enzyme-linked immunosorbent assay (ELISA) that detects endogenous levels of total androgen receptor protein. An Androgen Receptor Rabbit mAb has been coated onto the microwells. After incubation with cell lysates, androgen receptor protein is captured by the coated antibody. Following extensive washing, an Androgen Receptor Mouse Detection mAb is added to detect the captured androgen receptor protein. Anti-mouse IgG, HRP-linked Antibody is then used to recognize the bound detection antibody. HRP substrate, TMB, is added to develop color. The magnitude of absorbance for the developed color is proportional to the quantity of total androgen receptor protein. Antibodies in kit are custom formulations specific to kit.
(In general: In an ELISA, binding on a coated surface is turned into a signal by an enzyme label.)
As for `CC1(C)C(=O)N(c2ccc(C#N)c(C(F)(F)F)c2)C(=S)N1c1ccc(OCCCOCCCOCCNc2cccc3c2C(=O)N(C2CCC(=O)NC2=O)C3=O)cc1` (stereo not drawn) [Compound 2], the Dmax at 1 µM fell in the range of 31 to 50%.

In turn, `CC1(C)C(=O)N(c2ccc(C#N)c(C(F)(F)F)c2)C(=S)N1c1ccc(OCCOCCOCCOCCNc2cccc3c2C(=O)N(C2CCC(=O)NC2=O)C3=O)cc1` (stereo not drawn) [Compound 3, 4-(3-(4-(2-(2-(2-(2-((2-(2,6-dioxopiperidin-3-yl)-1,3-dioxoisoindolin-4-yl)amino)ethoxy)ethoxy)ethoxy)ethoxy)phenyl)-4,4-dimethyl-5-oxo-2-thioxo-imidazolidin-1-yl)-2-(trifluoromethyl) benzonitrile] showed a Dmax at 1 µM of 31 to 50%.

`CC1(C)C(=O)N(c2ccc(C#N)c(C(F)(F)F)c2)C(=S)N1c1ccc(OCCOCCOCCOCCNc2cccc3c2C(=O)N([C@H]2CCC(=O)NC2=O)C3=O)cc1` [Compound 4, (S)-4-(3-(4-(2-(2-(2-(2-((2-(2,6-dioxopiperidin-3-yl)-1,3-dioxoisoindolin-4-yl)amino)ethoxy)ethoxy)ethoxy)ethoxy)phenyl)-4,4-dimethyl-5-oxo-2-thioxoimidazolidin-1-yl)-2-(trifluoromethyl) benzonitrile] registered a Dmax at 1 µM of 31 to 50%.

As to `CC1(C)C(=O)N(c2ccc(C#N)c(C(F)(F)F)c2)C(=S)N1c1ccc(OCCOCCOCCOCCNc2cccc3c2C(=O)N([C@@H]2CCC(=O)NC2=O)C3=O)cc1` [Compound 5, (R)-4-(3-(4-(2-(2-(2-(2-((2-(2,6-dioxopiperidin-3-yl)-1,3-dioxoisoindolin-4-yl)amino)ethoxy)ethoxy)ethoxy)ethoxy)phenyl)-4,4-dimethyl-5-oxo-2-thioxoimidazolidin-1-yl)-2-(trifluoromethyl) benzonitrile], the Dmax at 1 µM was in the range of 31 to 50%.

In the case of `CC1(C)C(=O)N(c2ccc(C#N)c(C(F)(F)F)c2)C(=S)N1c1ccc(OCCOCCOCCOCCOCCOCCNc2cccc3c2C(=O)N(C2CCC(=O)NC2=O)C3=O)cc1` (stereo not drawn) [Compound 6, 4-(3-(4-((17-((2-(2,6-dioxopiperidin-3-yl)-1,3-dioxoisoindolin-4-yl)amino)-3,6,9,12,15-pentaoxa-heptadecyl)oxy)phenyl)-4,4-dimethyl-5-oxo-2-thioxoimidazolidin-1-yl)-2-(trifluoromethyl) benzonitrile], the Dmax at 1 µM lay within 10 to 30%.

The compound `CC1(C)C(=O)N(c2ccc(C#N)c(C(F)(F)F)c2)C(=S)N1c1ccc(OCCOCCNc2cccc3c2C(=O)N(C2CCC(=O)NC2=O)C3=O)cc1` (stereo not drawn) [Compound 7, 4-(3-(4-(2-(2-((2-(2,6-dioxopiperidin-3-yl)-1,3-dioxoisoindolin-4-yl)amino)ethoxy)ethoxy)phenyl)-4,4-dimethyl-5-oxo-2-thioxoimidazolidin-1-yl)-2-(trifluoromethyl) benzonitrile] registered a Dmax at 1 µM of 10 to 30%.

`CC1(C)C(=O)N(c2ccc(C#N)c(C(F)(F)F)c2)C(=S)N1c1ccc(OCCOCCOCCNc2cccc3c2C(=O)N(C2CCC(=O)NC2=O)C3=O)cc1` (stereo not drawn) [Compound 8, 4-(3-(4-(2-(2-(2-((2-(2,6-dioxopiperidin-3-yl)-1,3-dioxoisoindolin-4-yl)amino)ethoxy)ethoxy)ethoxy)phenyl)-4,4-dimethyl-5-oxo-2-thioxoimidazolidin-1-yl)-2-(trifluoromethyl) benzonitrile] yielded a Dmax at 1 µM of 10 to 30%.

The compound `CC1(C)C(=O)N(c2ccc(C#N)c(C(F)(F)F)c2)C(=S)N1c1ccc(OCCCOCCOCCNc2cccc3c2C(=O)N(C2CCC(=O)NC2=O)C3=O)cc1` (stereo not drawn) [Compound 9, 4-(3-(4-(3-(2-(2-((2-(2,6-dioxopiperidin-3-yl)-1,3-dioxoisoindolin-4-yl)amino)ethoxy)ethoxy)propoxy)phenyl)-4,4-dimethyl-5-oxo-2-thioxoimidazolidin-1-yl)-2-(trifluoromethyl) benzonitrile] returned a Dmax at 1 µM of 10 to 30%.

In turn, `CC1(C)[C@H](NC(=O)c2ccc(OCCCCCOCCCNc3cccc4c3C(=O)N(C3CCC(=O)NC3=O)C4=O)cc2)C(C)(C)[C@H]1Oc1ccc(C#N)c(Cl)c1` (stereo partly drawn) [Compound 11] displayed a Dmax at 1 µM of more than 50%.

`CC1(C)C(=O)N(c2ccc(C#N)c(C(F)(F)F)c2)C(=S)N1c1ccc(-c2ccc(OCCCCCNc3cccc4c3C(=O)N(C3CCC(=O)NC3=O)C4=O)cc2)cc1` (stereo not drawn) [Compound 13, 4-(3-(4-(4-((5-((2-(2,6-dioxopiperidin-3-yl)-1,3-dioxo-2,3-dihydro-1H-isoindol-4-yl)amino)pentyl)oxy)phenyl)phenyl)-4,4-dimethyl-5-oxo-2-sulfanylidene-imidazolidin-1-yl)-2-(trifluoromethyl) benzonitrile] yielded a Dmax at 1 µM of more than 50%.

Staying with this assay, now noted: 16 h.
Regarding `CC1(C)C(=O)N(c2ccc(C#N)c(C(F)(F)F)c2)C(=S)N1c1ccc(OCCCOCCOCCOCCNc2cccc3c2C(=O)N(C2CCC(=O)NC2=O)C3=O)cc1` (stereo not drawn) [Compound 1, 4-(3-(4-(3-(2-(2-(2-((2-(2,6-dioxopiperidin-3-yl)-1,3-dioxoisoindolin-4-yl)amino)ethoxy)ethoxy)ethoxy)propoxy)phenyl)-4,4-dimethyl-5-oxo-2-thioxoimidazolidin-1-yl)-2-(trifluoromethyl) benzonitrile], the Dmax was in the range of 10 to 30%.

`CC1(C)C(=O)N(c2ccc(C#N)c(C(F)(F)F)c2)C(=S)N1c1ccc(OCCCCOCCOCCOCCNc2cccc3c2C(=O)N(C2CCC(=O)NC2=O)C3=O)cc1` (stereo not drawn) [Compound 10] registered a Dmax of 31 to 50%.

Take `CC1(C)C(=O)N(c2ccc(C#N)c(C(F)(F)F)c2)C(=S)N1c1ccc(OCCCOCCOCCOCCNc2cccc3c2C(=O)N(C2(C)CCC(=O)NC2=O)C3=O)cc1` (stereo not drawn) [Compound 12, 4-(4,4-dimethyl-3-(4-((1-(2-(3-methyl-2,6-dioxopiperidin-3-yl)-1,3-dioxo-2,3-dihydro-1H-isoindol-4-yl)-4,7,10-trioxa-1-azatridecan-13-yl)oxy)phenyl)-5-oxo-2-sulfanylidene-imidazolidin-1-yl)-2-(trifluoromethyl) benzonitrile]: the Dmax lay in the range of 10 to 30%.

Usually Dmax stands for the largest share of the target that was removed.
